Assay results as given in patent publication US20140106967A1, “AUXIN PLANT GROWTH REGULATORS” (The Governors of The University of Alberta, priority 2011, published 2014).

Tests used:
[1] = system: 'Harvest HRS'-Spring hard-red wheat; experiment: Wheat growth chamber experiment, with or without heat stress (Tables W2, W3); assay type: in vivo, Triticum aestivum
Protocol: In another experiment, seeds of the wheat cultivar Harvest HRS were planted at an approximate depth of 1.5 cm in 5 inch square plastic pots (6 inch pot depth; 3 seeds per pot) in 1:1 Sunshine #4 potting mix (Sun Gro Horticulture, Vancouver, Canada) and sand. The seedlings were thinned to one seedling per pot approximately 2 weeks after seeding. Plants were grown in a Conviron growth chamber maintained at 24° C. light/20° C. dark (16 hours light/8 hours dark photoperiod; using 54W/835/HO high fluorescent bulbs [Phillips, Holland] with an average photon flux density of 540 μE m^−2s^−2. Plant were fertilized with 175 ppm 20-20-20 (N:P:K) every 3 to 4 days.
Aqueous solutions of 4-ME-IAA at 1×10^−6, 1×10^−5, or 1×10^−4 M in 0.1% (v/v) Tween 80 or a control solution (0.1% [v/v] Tween 80) were applied (sprayed on plant to cover) when the majority of the plants were at the BBCH scale 45 developmental stage (late boot stage where the flag leaf sheath [boot] is swollen with the inflorescence, but the inflorescence has not emerged from the boot). The experiment was arranged in a completely randomized design within the growth chamber.
The heat stress treatment was imposed by moving plants to receive the heat stress to a different growth chamber ((heat stress chamber) for 6 days. In the heat stress chamber, the light cycle began at 7:00 hours at a 24° C. air temperature. The heat treatment began at 11:00 hours (33° C. air temperature) and was maintained for 6 hours (until 17:00 hours). Following the heat treatment, the remainder of the light cycle was maintained at a 24° C. air temperature. The dark cycle (began at 23:00 hours) was maintained at 20° C. The photoperiod was 16 h light/8 h dark at an average photon flux density of 492 μE m^−2s^−2 using 54W/835/HO high fluorescent bulbs (Phillips, Holland). After 6 days, the heat stress-treated plants were returned to the original growth chamber maintained at non-heat stress conditions to develop to maturity.

[2] = system: pea pericarp; experiment: Split-pericarp assay: growth of deseeded pea pericarps attached to the plant; assay type: in vivo, Pisum sativum
Excerpt: In addition to GAs, developing pea seeds and pericarps contain two auxins, 4-chloroindole-3-acetic acid (4-Cl-IAA) and indole-3-acetic acid (IAA) (Magnus et al. 1997). A split-pericarp assay where test compounds are applied to the inner wall of split and deseeded pericarps that are still attached to the plant has been developed to examine the effects of exogenously applied growth substances on pericarp growth.
(§1) During early pea fruit growth, the physiological roles of 4-chloroindole-3-acetic acid (4-Cl-IAA) and IAA, both natural pea auxins, in regulating gibberellin (GA) 20-oxidase gene expression (PsGA20ox1) were tested with 4-position, ring-substituted auxins that have a range of biological activities (fruit growth). The effect of seeds, and natural and synthetic auxins (4-Cl-IAA, and IAA; 4-Me-IAA, 4-Et-IAA and 4-F-IAA, respectively), and auxin concentration (4-Cl-IAA) on PsGA20ox1 mRNA levels in pea pericarp were investigated over a 24 h treatment period. The ability of certain 4-substituted auxins to increase PsGA20ox1 mRNA levels in deseeded pericarp was correlated with their ability to stimulate pericarp growth.

[3] = system: PsGA20ox1, PsGA3ox1, PsGA2ox1; experiment: GA biosynthesis/catabolism gene expression in pea pericarp; assay type: in vivo, Pisum sativum; conditions: 24 h treatment period
Protocol: as §1

[4] = 1×10^−4 M, 6 days of heat stress (33° C. 6 h/day)
[5] = 1×10^−5 M, 6 days of heat stress (33° C. 6 h/day)
[6] = 1×10^−6 M, 6 days of heat stress (33° C. 6 h/day)

SMILES: Cc1cccc2[nH]cc(CC(=O)O)c12 [4-ME-IAA, 4-methyl-indole-3-acetic acid]
- Length of spike peduncle [1, 4]: 70 ± 10 mm
- Number of spikes per plant [1, 4]: 25 ± 3
- Seed number per plant [1, 4]: 130 ± 23
- Seed number per spike [1, 4]: 5 ± 1
- Seed weight per plant [1, 4]: 4.08 ± 0.67 g
- increase in seed number per plant vs control ([1]; 1×10^−4 M, heat stress): 73%
- increase in seed weight per plant vs control ([1]; 1×10^−4 M, heat stress): 72%
- Length of spike peduncle ([1]; 1×10^−4 M, non-heat stress): 62 ± 5 mm
- Number of spikes per plant ([1]; 1×10^−4 M, non-heat stress): 25 ± 1
- Seed number per plant ([1]; 1×10^−4 M, non-heat stress): 163 ± 32
- Seed number per spike ([1]; 1×10^−4 M, non-heat stress): 7 ± 1
- Seed weight per plant ([1]; 1×10^−4 M, non-heat stress): 4.87 ± 0.95 g
- Length of spike peduncle [1, 5]: 57 ± 5 mm
- Number of spikes per plant [1, 5]: 24 ± 4
- Seed number per plant [1, 5]: 57 ± 18
- Seed number per spike [1, 5]: 3 ± 1
- Seed weight per plant [1, 5]: 1.83 ± 0.57 g
- Length of spike peduncle ([1]; 1×10^−5 M, non-heat stress): 82 ± 7 mm
- Number of spikes per plant ([1]; 1×10^−5 M, non-heat stress): 22 ± 3
- Seed number per plant ([1]; 1×10^−5 M, non-heat stress): 256 ± 42
- Seed number per spike ([1]; 1×10^−5 M, non-heat stress): 12 ± 1
- Seed weight per plant ([1]; 1×10^−5 M, non-heat stress): 7.56 ± 1.36 g
- Length of spike peduncle [1, 6]: 72 ± 7 mm
- Number of spikes per plant [1, 6]: 28 ± 3
- Seed number per plant [1, 6]: 151 ± 43
- Seed number per spike [1, 6]: 5 ± 1
- Seed weight per plant [1, 6]: 4.49 ± 1.25 g
- increase in number of floral spikes per plant vs control ([1]; 1×10^−6 M, heat stress): 40%
- increase in seed number per plant vs control ([1]; 1×10^−6 M, heat stress): 101%
- increase in seed weight per plant vs control ([1]; 1×10^−6 M, heat stress): 90%
- Length of spike peduncle ([1]; 1×10^−6 M, non-heat stress): 63 ± 6 mm
- Number of spikes per plant ([1]; 1×10^−6 M, non-heat stress): 24 ± 3
- Seed number per plant ([1]; 1×10^−6 M, non-heat stress): 254 ± 81
- Seed number per spike ([1]; 1×10^−6 M, non-heat stress): 10 ± 2
- Seed weight per plant ([1]; 1×10^−6 M, non-heat stress): 8.17 ± 2.66 g
- pericarp growth (biological activity) [2]: second most biologically active auxin
- PsGA20ox1 mRNA levels in deseeded pericarp [3]: second most active auxin
